Test results published in the NIST ThermoML archive (doi:10.1021/je800110r).
± gives the expanded uncertainty stated by the source.

Conditions: 333.15 K, Liquid, Vibrating tube method

CCCCCCCCCC [decane]
Conditions	mass density [kg/m3]
4738 kPa	703.8 ± 2
4760 kPa	703.6 ± 2
4781 kPa	703.9 ± 2
4846 kPa	703.9 ± 2
4874 kPa	704 ± 2
4903 kPa	703.9 ± 2
4957 kPa	704.1 ± 2
4981 kPa	704.1 ± 2
5033 kPa	704.1 ± 2
5058 kPa	704 ± 2
5078 kPa	704.2 ± 2
5105 kPa	704.2 ± 2
5125 kPa	704.1 ± 2
5153 kPa	704.1 ± 2
5182 kPa	704.1 ± 2
5207 kPa	704.3 ± 2
5223 kPa	704.3 ± 2
5253 kPa	704.2 ± 2
5272 kPa	704.3 ± 2
5288 kPa	704.2 ± 2
5306 kPa	704.4 ± 2
5324 kPa	704.3 ± 2
5342 kPa	704.4 ± 2
5361 kPa	704.3 ± 2
5380 kPa	704.3 ± 2
5399 kPa	704.4 ± 2
5413 kPa	704.4 ± 2
5434 kPa	704.4 ± 2
5450 kPa	704.5 ± 2
5470 kPa	704.5 ± 2
5498 kPa	704.5 ± 2
5514 kPa	704.6 ± 2
5530 kPa	704.6 ± 2
5548 kPa	704.5 ± 2
5567 kPa	704.7 ± 2
5637 kPa	704.6 ± 2
5652 kPa	704.6 ± 2
5669 kPa	704.7 ± 2
5690 kPa	704.7 ± 2
5721 kPa	704.7 ± 2
5735 kPa	704.7 ± 2
6140 kPa	705.1 ± 2
6164 kPa	705 ± 2
6191 kPa	705.1 ± 2
6212 kPa	705.1 ± 2
6234 kPa	705.2 ± 2
6252 kPa	705.2 ± 2
6280 kPa	705.2 ± 2
6299 kPa	705.2 ± 2
6323 kPa	705.2 ± 2
6345 kPa	705.3 ± 2
6367 kPa	705.3 ± 2
6389 kPa	705.2 ± 2
6418 kPa	705.4 ± 2
6437 kPa	705.3 ± 2
6464 kPa	705.3 ± 2
6483 kPa	705.4 ± 2
6513 kPa	705.5 ± 2
6533 kPa	705.4 ± 2
6560 kPa	705.5 ± 2
6595 kPa	705.5 ± 2
6622 kPa	705.6 ± 2
6882 kPa	705.7 ± 2
6909 kPa	705.8 ± 2
6935 kPa	705.8 ± 2
6958 kPa	706 ± 2
6985 kPa	705.9 ± 2
7028 kPa	705.9 ± 2
7059 kPa	706 ± 2
7087 kPa	706 ± 2
7110 kPa	706 ± 2
7135 kPa	705.9 ± 2
7164 kPa	706 ± 2
7188 kPa	706 ± 2
7209 kPa	706.1 ± 2
7243 kPa	706 ± 2
7268 kPa	706.2 ± 2
7306 kPa	706.1 ± 2
7344 kPa	706.2 ± 2
8096 kPa	706.9 ± 2
8122 kPa	706.9 ± 2
8147 kPa	707 ± 2
8166 kPa	707 ± 2
8186 kPa	707 ± 2
8211 kPa	707 ± 2
8236 kPa	707 ± 2
8262 kPa	707 ± 2
8292 kPa	707 ± 2
8315 kPa	707 ± 2
8335 kPa	707 ± 2
8358 kPa	707 ± 2
8381 kPa	707.2 ± 2
8505 kPa	707.3 ± 2
8536 kPa	707.2 ± 2
8561 kPa	707.4 ± 2
8613 kPa	707.4 ± 2
8638 kPa	707.3 ± 2
8740 kPa	707.4 ± 2
8795 kPa	707.5 ± 2
8818 kPa	707.7 ± 2
8851 kPa	707.6 ± 2
8872 kPa	707.6 ± 2
8900 kPa	707.6 ± 2
8924 kPa	707.6 ± 2
9353 kPa	708 ± 2
9380 kPa	708.2 ± 2
9411 kPa	708.1 ± 2
9435 kPa	708.2 ± 2
9465 kPa	708.1 ± 2
9493 kPa	708.1 ± 2
9570 kPa	708.3 ± 2
9598 kPa	708.2 ± 2
9623 kPa	708.2 ± 2
9648 kPa	708.3 ± 2
9680 kPa	708.2 ± 2
9709 kPa	708.3 ± 2
9849 kPa	708.4 ± 2
9874 kPa	708.5 ± 2
9908 kPa	708.6 ± 2
9931 kPa	708.6 ± 2
9958 kPa	708.6 ± 2
9981 kPa	708.6 ± 2
10004 kPa	708.6 ± 2
10023 kPa	708.6 ± 2
10054 kPa	708.6 ± 2
10081 kPa	708.7 ± 2
10109 kPa	708.7 ± 2
10145 kPa	708.8 ± 2
10175 kPa	708.9 ± 2
10207 kPa	708.8 ± 2
10231 kPa	708.8 ± 2
10260 kPa	708.8 ± 2
10298 kPa	708.9 ± 2
10331 kPa	708.7 ± 2
10354 kPa	708.9 ± 2
10384 kPa	709 ± 2
10403 kPa	708.9 ± 2
